Assay results from patent US20200291444A1, “Macrocyclisation Tags” (Oxford University Innovation LTD, priority 2017, published 2020).
No end group written: not given here.

Columns and labels:
GmPOPB_S577A [1] = target: T1, GmPOPB_S577A (Galerina marginata, UniProt H2E7Q8, S577A); conditions: previously shown; cited from earlier work
T1 construct: His-tag (TEV-cleavable) (cleaved yes); made in house; host or cells: E. coli BL21(DE3)
T1 sequence (H2E7Q8 1-730 S577A): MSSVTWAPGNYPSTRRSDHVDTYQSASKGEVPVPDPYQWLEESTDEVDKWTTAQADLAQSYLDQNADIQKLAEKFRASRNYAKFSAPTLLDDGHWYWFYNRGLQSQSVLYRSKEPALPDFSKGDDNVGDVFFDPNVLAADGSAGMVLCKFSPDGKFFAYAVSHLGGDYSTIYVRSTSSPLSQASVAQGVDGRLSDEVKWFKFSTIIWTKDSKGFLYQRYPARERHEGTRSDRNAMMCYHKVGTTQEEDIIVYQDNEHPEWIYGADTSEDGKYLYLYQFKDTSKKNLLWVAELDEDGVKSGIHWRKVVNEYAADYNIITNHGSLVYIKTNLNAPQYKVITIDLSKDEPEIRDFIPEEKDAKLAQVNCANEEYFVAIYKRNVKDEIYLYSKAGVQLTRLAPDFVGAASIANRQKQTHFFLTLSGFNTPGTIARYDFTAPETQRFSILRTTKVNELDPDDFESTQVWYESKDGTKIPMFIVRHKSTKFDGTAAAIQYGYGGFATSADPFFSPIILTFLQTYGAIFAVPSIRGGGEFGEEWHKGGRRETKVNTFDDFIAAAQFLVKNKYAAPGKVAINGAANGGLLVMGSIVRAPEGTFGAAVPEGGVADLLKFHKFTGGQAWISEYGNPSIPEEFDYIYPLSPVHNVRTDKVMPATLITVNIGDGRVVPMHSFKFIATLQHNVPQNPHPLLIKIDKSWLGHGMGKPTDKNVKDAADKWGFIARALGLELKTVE

GmPOPB_S577A [2] = target: T1, GmPOPB_S577A; assay: ITC binding to inactive mutant GmPOPB_S577A
PCY1 [3] = conditions: PCY1 extracted from S. vaccaria seeds; cited from earlier work
PCY1:S562A = assay: ITC equilibrium binding to PCY1:S562A; design: species or system Saponaria vaccaria; conditions: ITC, 25° C.
Protocol: All PCY1 samples were buffer-exchanged or solubilized into buffer F and further diluted in the same batch of buffer F, in order to minimize buffer mismatches. ITC binding experiments were performed using a cell solution containing PCY1:S562A and a titrant solution with each peptide used. […] The measurements were performed at a stir speed of 750 rpm at 25° C. using a reference power of 10 μcal/s, except for A1-NH2 (5 μcal/s). A buffer titration control in which peptide was titrated into buffer was performed for each experiment. Data processing, fitting to a non-linear one-site binding model, and data plotting was performed using MicroCal PEAQ ITC analysis software (Malvern). […] The measurement was performed in buffer at 30° C., at 750 rpm using a reference power of 5 μcal/s.

PCY1 [4] = assay: LC/MS time course of macrocyclisation by PCY1; format: biochemical, Saponaria vaccaria; conditions: 200 μM substrate, 3.6 μM PCY1
Protocol: All kinetic measurements (activity tests, progress curves and initial-rate experiments) were performed as discontinuous assays analyzing samples via LC/MS or MALDI (10-mer activity test). Reactions were performed in 20 mM Tris pH 8.5, 100 mM NaCl, 5 mM DTT (for progress curves 0.2 mg mL-1 BSA was included).17 Reactions were performed at 30° C. and at various time points 50 μL samples were quenched with 20 μL of 6% (v/v) TFA. Samples (50 μL) were loaded onto a ZORBAX SBC18, 5 μm, 9.4 mm×50 mm (Agilent) column connected to an Agilent LC-MS instrument (G6130B Single Quad, Agilent Technologies). Reactants were separated from products using a gradient from A (H2O with 0.1% formic acid) to 80% B (acetonitrile), at a rate of 1.5 mL/min for 8.75 min. For data analysis, ion count peaks and UV absorbance peaks were integrated using Agilent ChemStation software. For data analysis involving quantitative mass spec integration, calibration curves with macrocyclic peptide product were performed in triplicate in order to linearly correlate ion counts to cyclic product concentration. Data fitting and plotting was performed with Prism 6.
PCY1 extracted from S. vaccaria seeds has been previously described to have a turnover number of ˜1 h^−1 for PresegA1.^17 The enzyme produced heterologously in E. coli was evaluated by LC/MS-based time course experiments macrocyclizing 200 μM of PresegA1, PresegB1 or PresegF1 with 3.6 μM PCY1. […] We chose to investigate the slowest and fastest substrate by steady-state kinetics using an LC/MS assay and UV280 nm quantification. […] Under the ITC conditions, the measured kcat (0.14±0.01 s^−1) was a factor of three lower than the LC/MS derived values. […] Therefore, we resorted to an LC/MS assay followed by quantification using mass ion counts, relying on a calibration curve employing the macrocyclic peptide product as a standard (FIG. 2b).

PresegB1 = assay: Activity test of PCY1 variants with PresegB1 as substrate; format: biochemical, Saponaria vaccaria

WTAEHVDQTLASGNDIC [17mer-recogSeq, reference compound]
difference in ΔG between the 17mer recognition sequence and the 25mer peptide (GmPOPB_S577A [1]): 1.34 kcal/mol
Kd (GmPOPB_S577A [2]): 430 ± 10 nM

PresegA1: native linear PCY1 substrate presegetalin A1; produces a 6 residue macrocycle (GVPVWAFQAKDVENASAPV; PresegA1)
turnover number (PCY1 [3]): ~1 h⁻¹
Kd (PCY1:S562A): ~200 nM
time until completely macrocyclized (PCY1 [4]): ~50 min

B1: S562A: PCY1 variant (protein)
chain: MATSGFSKPLHYPPVRRDETVVDDYFGVKVADPYRWLEDPNSEETKEFVDNQEKLANSVLEECELIDKFKQKIIDFVNFPRCGVPFRRANKYFHFYNSGLQAQNVFQMQDDLDGKPEVLYDPNLREGGRSGLSLYSVSEDAKYFAFGIHSGLTEWVTIKILKTEDRSYLPDTLEWVKFSPAIWTHDNKGFFYCPYPPLKEGEDHMTRSAVNQEARYHFLGTDQSEDILLWRDLENPAHHLKCQITDDGKYFLLYILDGCDDANKVYCLDLTKLPNGLESFRGREDSAPFMKLIDSFDASYTAIANDGSVFTFQTNKDAPRKKLVRVDLNNPSVWTDLVPESKKDLLESAHAVNENQLILRYLSDVKHVLEIRDLESGALQHRLPIDIGSVDGITARRRDSVVFFKFTSILTPGIVYQCDLKNDPTQLKIFRESVVPDFDRSEFEVKQVFVPSKDGTKIPIFIAARKGISLDGSHPCEMHGYGGFGINMMPTFSASRIVFLKHLGGVFCLANIRGGGEYGEEWHKAGFRDKKQNVFDDFISAAEYLISSGYTKARRVAIEGGANGGLLVAACINQRPDLFGCAEANCGVMDMLRFHKFTLGYLWTGDYGCSDKEEEFKWLIKYSPIHNVRRPWEQPGNEETQYPATMILTADHDDRVVPLHSFKLLATMQHVLCTSLEDSPQKNPIIARIQRKAAHYGRATMTQIAEVADRYGFMAKALEAPWID
relative activity of PCY1 variant (in words) (PresegB1): inactive
